From ChEMBL document CHEMBL1146673, “Inhibition of ICAM-1/LFA-1-mediated heterotypic T-cell adhesion to epithelial cells: design of ICAM-1 cyclic peptides” (2004) come the findings set out here.

In this assay the test system is T-cell. Nature of the assay: Ability of compound to inhibit the T-cell adhesion at 200 uM in cell adhesion assay. Type of assay: functional, Homo sapiens.
H-LPRGGS-OH: the T-cell binding is on record as 37%.

On to H-PRGGSV-OH, for which the T-cell binding came out at 25%.

The substance H-VILARG-OH showed a T-cell binding of 62%.

With H-PSKVIL-OH, the T-cell binding turned out to be 44%.

Substance H-VILPRG-OH displayed a T-cell binding of 32%.

H-VALPRG-OH had a T-cell binding of 71%.

With H-VILPRA-OH, the T-cell binding is listed as 68%.

The substance H-ILPRGG-OH displayed a T-cell binding of 46%.

With H-AILPRG-OH, the T-cell binding is 53%.

Substance H-KVILPR-OH had a T-cell binding of 49%.

Substance H-VIAPRG-OH registered a T-cell binding of 46%.
